Data on 4 molecules can be found in patent publication US20230286999A1, “ORGANIC COMPOUND, LIGHT-RECEIVING DEVICE, LIGHT-EMITTING AND LIGHT-RECEIVING APPARATUS, AND ELECTRONIC DEVICE” (Semiconductor Energy Laboratory Co., Ltd., priority 2022, published 2023).

A short description of series [1]: Solubility evaluation using a liquid chromatography mass spectrometer. The following applies: for Ratio of chromatogram peak areas (Peak area of material/Peak area of solvent × 100), considered as the solubility: 0.5 mg material in 0.25 mL chloroform + 2.5 mL acetonitrile, filtrate after 18 hours, DPAPhA: 1 mg in 1 mL toluene, 5-fold dilution with acetonitrile, 100% = completely dissolved; for solubility compared with FT2TDMN (in words): chloroform/acetonitrile sample. It counts as physicochemical. The protocol: In Example 3, the solubilities of materials that can be used for a photoelectric conversion device of one embodiment of the present invention are described. The solubilities of the materials were measured using a liquid chromatography mass spectrometer.
In Example 3, the solubilities of the organic compound (abbreviation: EtHex-FT2TDMN) represented by Structural Formula (100) in Embodiment 1 and the organic compound (abbreviation: EtHex-BisDCVTTt) represented by Structural Formula (200) in Embodiment 1 were evaluated. As a comparative example, FT2TDMN, which is a material having no branched alkyl, was evaluated. Furthermore, DPAPhA, which is a material with high solubility, was also evaluated as a reference sample.
The solubilities were measured using a liquid chromatography mass spectrometer. Specifically, chromatogram peak areas of the solvent and the material in the sample were obtained, the proportion of the peak area of the material to the peak area of the solvent was calculated, and the calculated value was considered as the solubility.
Note that the solubility of the case where the sample is completely dissolved is 100%. In Example 3, DPAPhA is a reference sample that is completely dissolved. In the case where a chromatogram peak is not detected and an MS spectrum is detected from a sample, the mass of the sample is regarded as being lower than the detection limit and the solubility is 0%.
The liquid chromatography mass spectrometer is constructed of ACQUITY H-Class (produced by Waters Corporation) and Xevo™ G2 Q-TOF MS (produced by Waters Corporation), and ACQUITY UPLC (registered trademark) BEH C8 Column ([…], 2.1×100 mm) (produced by Waters Corporation, hereinafter referred to as Column) was used as a column.
Samples of EtHex-FT2TDMN, EtHex-BisDCVTTt, and FT2TDMN used for solubility evaluation were formed. Specifically, in a reagent bottle made of glass were put 0.5 mg of the material and 0.25 mL of chloroform, and ultrasonic treatment was performed for 1 minute. To the obtained mixture, 2.5 mL of acetonitrile was added, and the resulting mixture was left still. After 18 hours, the resulting mixture was filtrated. With the use of the obtained filtrate as a sample, a solubility test for evaluating the solubility was performed using the liquid chromatography mass spectrometer.
Next, the DPAPhA sample used for solubility evaluation was formed. In a reagent bottle made of glass were put 1 mg of the material and 1 mL of toluene, and ultrasonic treatment was performed for 1 minute. Acetonitrile was added to the obtained solution to make a 5-fold dilution. The dilute solution was used as the sample and took the solubility test with the liquid chromatography mass spectrometer.
A measurement method for the solubility test for evaluating the solubility using the liquid chromatography mass spectrometer is described. As a mobile phase A and a mobile phase B, acetonitrile and a formic acid aqueous solution (0.1%) were used, respectively; the velocity of flow of a solvent was 0.5 mL/min; and the sample injection amount was 5 μL.
For 1 minute from the beginning of the measurement, the ratio of a mobile phase A to a mobile phase B was set to be 75:25. From 1 minute to 9 minutes, measurement was performed with a linear gradient to the ratio of 95:5. After a lapse of 10 minutes, measurement was performed for 5 minutes with the ratio of 95:5 held.
For 1 minute from the beginning of the measurement, the ratio of a mobile phase A to a mobile phase B was set to be 85:15. From 1 minute to 9 minutes, measurement was performed with a linear gradient to the ratio of 95:5. After a lapse of 10 minutes, measurement was performed for 5 minutes with the ratio of 95:5 held.
For 1 minute from the beginning of the measurement, the ratio of a mobile phase A to a mobile phase B was set to be 40:60. From 1 minute to 9 minutes, measurement was performed with a linear gradient to the ratio of 95:5. […]

Series [2] can be described thus: Thermogravimetry-differential thermal analysis (TG-DTA). It counts as physicochemical. As to conditions: 10° C./min. The protocol:
The thermogravimetry-differential thermal analysis (TG-DTA) of EtHex-FT2TDMN was performed. The measurement was conducted using a high vacuum differential type differential thermal balance (TG-DTA 2410SA, manufactured by Bruker AXS K.K.). The measurement was performed under two conditions. The first measurement was performed at atmospheric pressure at a temperature rising rate of 10° C./min under a nitrogen stream (flow rate: 200 mL/min). The second measurement was performed at 10 Pa at a temperature rising rate of 10° C./min under a nitrogen stream (flow rate: 2 mL/min).
The thermogravimetry-differential thermal analysis (TG-DTA) of EtHex-BisDCVTTt was performed. The measurement was conducted using a high vacuum differential type differential thermal balance (TG-DTA 2410SA, manufactured by Bruker AXS K.K.). The measurement was performed under two conditions. The first measurement was performed under atmospheric pressure at a temperature rising rate of 10° C./min under a nitrogen stream (flow rate: 200 mL/min). The second measurement was performed at 10 Pa at a temperature rising rate of 10° C./min under a nitrogen stream (flow rate: 2 mL/min).

Setting [3] is: 10 Pa, nitrogen stream 2 mL/min.
Where [4] appears, read: atmospheric pressure, nitrogen stream 200 mL/min.

For `c1ccc(-c2c3ccccc3c(N(c3ccccc3)c3ccc(N(c4ccccc4)c4ccccc4)cc3)c3ccccc23)cc1` [DPAPhA, reference compound], in series [1], the “Ratio of chromatogram peak areas (Peak area of material/Peak area of solvent × 100), considered as the solubility” value is 100%.

In the case of `CCCCC(CC)Cc1cc(-c2cc3sc(-c4cc5sc(-c6cc(CC(CC)CCCC)c(C=C(C#N)C#N)s6)cc5s4)cc3s2)sc1C=C(C#N)C#N` (centres unmarked) [EtHex-BisDCVTTt], the “Ratio of chromatogram peak areas (Peak area of material/Peak area of solvent × 100), considered as the solubility” value in series [1] is given as 3.5%. In addition, in series [1], the “solubility compared with FT2TDMN (in words)” value is “favorable solubilities”. The results for the “temperature (decomposition temperature) at which the weight obtained by thermogravimetry was reduced by 5%” value in series [2] (setting [3]) and in series [2] (setting [4]) were 295 °C and 362 °C, respectively.

For `CCCCC(CC)Cc1cc(-c2cc3sc(-c4cc(CC(CC)CCCC)c(C=C(C#N)C#N)s4)cc3s2)sc1C=C(C#N)C#N` (centres unmarked) [EtHex-FT2TDMN, 2,2′-[5,5′-(thieno[3,2-b]thiophene-2,5-diyl)bis(3-(2-ethylhexyl)thiophene-5,2-diyl)]bis(methan-1-yl-1-ylidene)dimalononitrile], the “Ratio of chromatogram peak areas (Peak area of material/Peak area of solvent × 100), considered as the solubility” value in series [1] is 18%. In series [1], the “solubility compared with FT2TDMN (in words)” value is recorded as “favorable solubilities”. For the same molecule, the “temperature (decomposition temperature) at which the weight obtained by thermogravimetry was reduced by 5%” value in series [2] (setting [3]) worked out at 244 °C; in series [2] (setting [4]), 325 °C.

On to `N#CC(C#N)=Cc1ccc(-c2cc3sc(-c4ccc(C=C(C#N)C#N)s4)cc3s2)s1` [FT2TDMN, reference compound], for which the “Ratio of chromatogram peak areas (Peak area of material/Peak area of solvent × 100), considered as the solubility” value in series [1] was 0%. The “chromatogram peak detection in solubility measurement (in words)” value in series [1] (only an MS spectrum was detected, regarded as below detection limit, solubility 0%) was “no chromatogram peak was detected”.
